Source: patent US20260200903A1, “PHARMACEUTICAL COMPOSITION FOR AMELIORATING MALIGNANT DISEASES” (KINKI UNIVERSITY, priority 2020, published 2026)

Columns and labels:
Format in all cases: cell-based
[1] = test system: CCRF-SB cells (acute lymphocytic leukemia cell line); test: Cell death inducing effect on CCRF-SB cells, trypan blue staining; conditions: CCRF-SB (acute lymphoblastic leukemia), cell viability
Procedure: (§1) CCRF-SB cells (acute lymphocytic leukemia cell line) were cultured under 5% CO2 at 37° C. The culture medium used RPMI-1640 medium with 100 μg/mL penicillin, 100 U/mL streptomycin and fetal bovine serum. CCRF-SB cells were seeded into 96-well plates and incubated with each concentration of the compounds was added, and cell viability was determined by the trypan blue staining.
(§2) For controls, only 0.5% DMSO (diluted in PBS) used to dissolve the compounds was added. For each concentration, each bar line is indicated by an arrow with the sign “n, a, 1, 2, 3, 4, 5, 6, 7, 8, 9, 10, 11, 12” from left to right. The “1, 3, 5, 7, 9, 11” are omitted from the graph, but the sign “1” shall be indicated by an arrow between the signs “a” and “2”, the sign “3” between the signs “2” and “4”, and other odd numbers shall likewise be indicated by arrows between even numbers before and after.
(§3) The sign “n” is the norathyriol (formula (n)) administration group, the sign “a” is the mangiferin 8a (formula (a)) administration group, the sign “1” is the yk-7 (formula (1)) administration group, the sign “2” is the yk-8-1 (formula (2)) administration group, the sign “3” is the yk-8-3 (formula (3)) administration group, the sign “4” is the M7 (formula (4)) administration group, the sign “5” is the M9 (formula (5)) administration group, the sign “6” is the M11 (formula (6)) administration group, the sign “7” is the M12 (formula (7)) administration group, the sign “8” is the M14 (formula (8)) administration group, the sign “9” is the M15 (formula (9)) administration group, the sign “10” is the M16 (formula (10)) administration group, the sign “11” is the M18 (formula (11)) administration group, the sign “12” is the M19 (formula (12)) administration group, respectively. The IC50 values for each compound is also listed in the upper right corner of the figure.

[2] = test system: RPMI1788 cells (human normal B cell line); test: Cell death inducing effect on RPMI1788 normal B cells, trypan blue staining; conditions: RPMI1788 (normal B lymphocyte), cell viability
Procedure: as §1, with “RPMI1788” for “CCRF-SB”, “(human normal B” for “(acute lymphocytic leukemia”
as §2, §3

CD138 [3] = test: CD138 expression in KMS-28BM cells, flow cytometry; conditions: 10 days, concentration lower than the IC50 (0.005-50 μM), compared to the positive control
Procedure: As a control, compounds untreated KMS-28BM cells were seeded in 75 cm^2 flasks and incubated for 10 days at 37° C. and 5% CO2. KMS-28BM cells were seeded into 75 cm^2 flasks and pre-cultured for 4 h. After incubation, KMS-28BM cells were treated with […], 0.05 μM M9, 0.1 μM yk-7, 0.1 μM yk-8-3, 50 μM yk-8-1, 0.5 μM M11, […], 0.005 μM M14, 0.005 μM M15, 0.005 μM M16, 0.5 μM M18, and 0.5 μM M19 at final concentrations, and incubated for 10 days at 37° C. and 5% CO2. This added amount is a concentration lower than the IC50 of the above compounds for KMS-28BM cells. After 10 days of incubation, cells were stained with anti-CD138 antibody, a marker of multiple myeloma grade, and CD138 expression was measured using BD LSRFortessa.
Results are shown in FIG. 17, FIG. 18, FIG. 19 and FIG. 20. The horizontal axis represents the expression level of CD138 and the vertical axis represents the number of cells.

CD138 [4] = test: CD138 expression in L363 cells, flow cytometry; conditions: 10 days, concentration lower than the IC50 (0.005-50 μM), compared to the positive control
Procedure: As a control, compounds untreated L363 cells were seeded in 75 cm^2 flasks and incubated for 10 days at 37° C. and 5% CO2. L363 cells were seeded into 75 cm^2 flasks and pre-cultured for 4 h. After incubation, L363 cells were treated with 0.1 μM M7, 0.05 μM M9, 0.1 μM yk-7, 0.1 μM yk-8-3, 50 μM yk-8-1, 0.1 μM M11, 0.01 μM M12, 0.005 μM M14, 0.005 μM M15, 0.005 μM M16, 1 μM M18, and 1 μM M19 at final concentrations, and incubated for 10 days at 37° C. and 5% CO2. This added amount is a concentration lower than the IC50 of the above compounds for L363 cells. After 10 days of incubation, cells were stained with anti-CD138 antibody, a marker of multiple myeloma grade, and CD138 expression was measured using BD LSRFortessa.
Results are shown in FIG. 25, FIG. 26, FIG. 27 and FIG. 28. The horizontal axis represents the expression level of CD138 and the vertical axis represents the number of cells.

For `CCCC(=O)OC[C@H]1O[C@@H](c2c(O)cc3oc4cc(O)c(O)cc4c(=O)c3c2OC(=O)CCC)[C@H](OC(=O)CCC)[C@@H](OC(=O)CCC)[C@@H]1OC(=O)CCC` [Compound M12, 1,2′,3′,4′,6-penta-O-butyrylmangiferin], the IC50 ([1]; Homo sapiens) was 0.954 µM, the IC50 ([2]; Homo sapiens, RPMI-1788) was 75 µM and the CD138 expression levels (CD138 [3]) was “markedly reduced”. The CD138 expression levels (CD138 [4]) was “markedly reduced”.
For `CCC(=O)OC[C@H]1O[C@@H](c2c(OC(=O)CC)cc3oc4cc(OC(=O)CC)c(OC(=O)CC)cc4c(=O)c3c2OC(=O)CC)[C@H](OC(=O)CC)[C@@H](OC(=O)CC)[C@@H]1OC(=O)CC` [Compound M7, 1,3,2′,3′,4′,6,6′,7-octa-O-propionylmangiferin], the IC50 ([1]; Homo sapiens) was 6.76 µM, the IC50 ([2]; Homo sapiens, RPMI-1788) was over 100 µM and the CD138 expression levels (CD138 [3]) was “markedly reduced”. For the same molecule, the CD138 expression levels (CD138 [4]) was “markedly reduced”.
`CCCC(=O)OC[C@H]1O[C@@H](c2c(OC(=O)CCC)cc3oc4cc(OC(=O)CCC)c(OC(=O)CCC)cc4c(=O)c3c2OC(=O)CCC)[C@H](OC(=O)CCC)[C@@H](OC(=O)CCC)[C@@H]1OC(=O)CCC` [Compound M11, 1,3,2′,3′,4′,6,6′,7-octa-O-butyrylmangiferin] was tested, and the IC50 [1] was 7.82 µM, the IC50 [2] was over 100 µM and the CD138 expression levels (CD138 [3]) was “markedly reduced”. For the same molecule, the CD138 expression levels (CD138 [4]) was “markedly reduced”.
With `CCCCC(=O)OC[C@H]1O[C@@H](c2c(OC(=O)CCCC)cc3oc4cc(OC(=O)CCCC)c(OC(=O)CCCC)cc4c(=O)c3c2OC(=O)CCCC)[C@H](OC(=O)CCCC)[C@@H](OC(=O)CCCC)[C@@H]1OC(=O)CCCC` [yk-8-1, 1,3,2′,3′,4′,6,6′,7-octa-O-valerylmangiferin] the IC50 [1] was over 100 µM, the IC50 [2] was over 100 µM and the CD138 expression levels (CD138 [3]) was “markedly reduced”. For the same molecule, the CD138 expression levels (CD138 [4]) was “markedly reduced”.
`CC(C)(C)C(=O)OC[C@H]1O[C@@H](c2c(O)cc3oc4cc(O)c(O)cc4c(=O)c3c2O)[C@H](OC(=O)C(C)(C)C)[C@@H](OC(=O)C(C)(C)C)[C@@H]1OC(=O)C(C)(C)C` [Compound M15, 2′,3′,4′,6′-tetra-O-pivaloylmangiferin] was tested, and the IC50 ([1]; Homo sapiens) was 0.357 µM, the IC50 ([2]; Homo sapiens, RPMI-1788) was 71 µM and the CD138 expression levels (CD138 [3]) was “markedly reduced”. The CD138 expression levels (CD138 [4]) was “markedly reduced”.
`O=c1c2cc(O)c(O)cc2oc2cc(O)cc(O)c12` [norathyriol, reference compound] was tested, and the IC50 ([1]; Homo sapiens) was 12.3 µM.
For `O=c1c2cc(O)c(O)cc2oc2cc(O)cc(OCCO)c12` [Compound M18, 3,6,7-trihydroxy-1-(2-hydroxyethoxy)-9H-xanthen-9-one], the IC50 ([1]; Homo sapiens) was 9.18 µM, the IC50 ([2]; Homo sapiens, RPMI-1788) was over 100 µM and the CD138 expression levels (CD138 [3]) was “markedly reduced”. The CD138 expression levels (CD138 [4]) was “markedly reduced”.
In the case of `CCCC(=O)OC[C@H]1O[C@@H](c2c(O)cc3oc4cc(O)c(O)cc4c(=O)c3c2O)[C@H](OC(=O)CCC)[C@@H](OC(=O)CCC)[C@@H]1OC(=O)CCC` [Compound M14, 2′,3′,4′,6′-tetra-O-butyrylmangiferin], the IC50 ([1]; Homo sapiens) is reported as 0.287 µM, the IC50 ([2]; Homo sapiens, RPMI-1788) is reported as 69 µM and the CD138 expression levels (CD138 [3]) is reported as “markedly reduced”. For the same molecule, the CD138 expression levels (CD138 [4]) was “markedly reduced”.
In the case of `C=CCOc1cc(O)cc2oc3cc(O)c(O)cc3c(=O)c12` [Compound M19, 1-allyloxy-3,6,7-trihydroxy-9H-xanthen-9-one], the IC50 ([1]; Homo sapiens) is reported as 18.2 µM, the IC50 ([2]; Homo sapiens, RPMI-1788) is reported as over 100 µM and the CD138 expression levels (CD138 [3]) is reported as “markedly reduced”. For the same molecule, the CD138 expression levels (CD138 [4]) was “markedly reduced”.
With “1,2′,3′,4′,6-penta-O-propionylmangiferin [Compound 8a, reference compound]” the IC50 [1] was 7.42 µM and the IC50 [2] was over 100 µM.
In the case of `CCCCO[C@@H]1[C@@H](OCCCC)[C@H](c2c(O)cc3oc4cc(O)c(O)cc4c(=O)c3c2O)O[C@H](COC(=O)CCC)[C@H]1OC(=O)CCC` [Compound M16, 2′,3′-di-O-butyl-4′,6′-di-O-butyrylmangiferin], the IC50 ([1]; Homo sapiens) is reported as 0.198 µM, the IC50 ([2]; Homo sapiens, RPMI-1788) is reported as 58 µM and the CD138 expression levels (CD138 [3]) is reported as “markedly reduced”. The CD138 expression levels (CD138 [4]) was “markedly reduced”.
In the case of `CCCCC(=O)OC[C@H]1O[C@@H](c2c(O)cc3oc4cc(O)c(O)cc4c(=O)c3c2O)[C@H](OC(=O)CCCC)[C@@H](OC(=O)CCCC)[C@@H]1OC(=O)CCCC` [yk-7, 2′,3′,4′,6′-tetra-O-valerylmangiferin], the IC50 ([1]; Homo sapiens) is reported as 1.84 µM, the IC50 ([2]; Homo sapiens, RPMI-1788) is reported as 2.76 µM and the CD138 expression levels (CD138 [3]) is reported as “markedly reduced”. For the same molecule, the CD138 expression levels (CD138 [4]) was “markedly reduced”.
In the case of `CCC(=O)OC[C@H]1O[C@@H](c2c(O)cc3oc4cc(O)c(O)cc4c(=O)c3c2O)[C@H](OC(=O)CC)[C@@H](OC(=O)CC)[C@@H]1OC(=O)CC` [Compound M9, 2′,3′,4′,6′-tetra-O-propionylmangiferin], the IC50 ([1]; Homo sapiens) is reported as 1.62 µM, the IC50 ([2]; Homo sapiens, RPMI-1788) is reported as over 100 µM and the CD138 expression levels (CD138 [3]) is reported as “markedly reduced”. The CD138 expression levels (CD138 [4]) was “markedly reduced”.
For `CCCCC(=O)OC[C@H]1O[C@@H](c2c(O)cc3oc4cc(O)c(O)cc4c(=O)c3c2OC(=O)CCCC)[C@H](OC(=O)CCCC)[C@@H](OC(=O)CCCC)[C@@H]1OC(=O)CCCC` [yk-8-3, 1,2′,3′,4′,6-penta-O-valerylmangiferin], the IC50 ([1]; Homo sapiens) was 2.41 µM, the IC50 ([2]; Homo sapiens, RPMI-1788) was 0.416 µM and the CD138 expression levels (CD138 [3]) was “markedly reduced”. For the same molecule, the CD138 expression levels (CD138 [4]) was “markedly reduced”.
